Consider 22 compounds from patent US20240043427A1 (Gilead Sciences, Inc., priority 2020, published 2024).

SMILES strings stand for the structures.

The target in assay [1] is T1, CD73 (Homo sapiens (Human), UniProt P21589). Put plainly: MDA-MB-231 Cell Based CD73 Activity Assay (DMEM). To be noted: MDA-MB-231-GFP cells, DMEM medium with 10% human plasma, 200 uM AMP. The protocol:
MDA-MB-231 Cell Based CD73 Activity Assay (DMEM) MDA-MB-231-GFP cells were seeded in 384-well plates (Greiner 781946) at a density of 3000 cells per well in 50 μL of DMEM medium with 10% HP (human plasma). Cells were plated into assay plate with compounds pre-spotted, for an overnight compound treatment. 50 uL of 400 uM AMP (final concentration will be 200 uM) was added using Bio-tek dispenser. Plates were incubated for 100 mins. […] The samples were analyzed using Rapid fire.

For assay [2], the target named is T1, CD73. It is filed as biochemical. Conditions: 1 mM NaH2PO4 in enzyme buffer, CD73 0.3 nM, AMP 15 uM.

T1 sequence (P21589 27-574): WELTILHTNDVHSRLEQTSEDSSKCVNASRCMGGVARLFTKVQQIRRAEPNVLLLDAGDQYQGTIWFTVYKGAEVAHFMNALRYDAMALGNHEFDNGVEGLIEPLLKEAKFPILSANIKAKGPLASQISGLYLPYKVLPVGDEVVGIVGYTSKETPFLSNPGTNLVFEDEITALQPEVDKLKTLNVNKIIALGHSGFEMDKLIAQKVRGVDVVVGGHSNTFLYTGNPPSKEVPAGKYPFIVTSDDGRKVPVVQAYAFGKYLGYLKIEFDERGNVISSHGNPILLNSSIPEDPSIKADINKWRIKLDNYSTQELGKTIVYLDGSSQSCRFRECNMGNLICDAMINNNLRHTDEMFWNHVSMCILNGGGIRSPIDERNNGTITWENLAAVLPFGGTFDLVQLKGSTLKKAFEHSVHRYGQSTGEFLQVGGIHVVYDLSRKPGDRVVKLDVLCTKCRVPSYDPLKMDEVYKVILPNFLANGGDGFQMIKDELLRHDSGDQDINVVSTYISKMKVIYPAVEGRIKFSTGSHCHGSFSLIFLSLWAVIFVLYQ

Consider `Cc1nc2ccc([C@H]3C[C@@H]3c3cc(-c4c[nH]c(=O)[nH]c4=O)nn4ccnc34)cc2s1` (racemic) [Example 570, 5-(8-((1S,2S)-2-(2-methylbenzo[d]thiazol-6-yl)cyclopropyl)imidazo[1,2-b]pyridazin-6-yl)pyrimidine-2,4(1H,3H)-dione], for which the midpoint of the response in assay [1], the EC50, lay at 0.84 nM. For the same compound, the IC50 (usually the concentration that gives 50% inhibition) in assay [2] came out at 0.8 nM.

As for `O=c1[nH]cc(-c2cc([C@H]3C[C@@H]3c3ccc(OCC(F)F)cc3)c3nccn3n2)c(=O)[nH]1` (racemic) [Example 574, 5-(8-((1S,2S)-2-(4-(2,2-difluoroethoxy)phenyl)cyclopropyl)imidazo[1,2-b]pyridazin-6-yl)pyrimidine-2,4(1H,3H)-dione], the EC50 (in general, the concentration giving half of the maximal effect) in assay [1] was 17.3 nM. The half-maximal inhibitory concentration (IC50) in assay [2] came to 0.73 nM.

In the case of `O=c1[nH]cc(-c2cc([C@H]3C[C@@H]3c3ccc(Cl)cn3)c3nccn3n2)c(=O)[nH]1` (racemic) [Example 576, 5-(8-((1S,2S)-2-(5-chloropyridin-2-yl)cyclopropyl)imidazo[1,2-b]pyridazin-6-yl)pyrimidine-2,4(1H,3H)-dione], in assay [1], the EC50 worked out at 6.9 nM. For the same compound, the IC50 in assay [2] was found to be 2.05 nM.

As to `Cc1nc2ccc([C@H]3C[C@@H]3c3cc(-c4c[nH]c(=O)[nH]c4=O)nn4c(F)cnc34)cc2s1` (racemic) [Example 580, 5-(3-fluoro-8-((1S,2S)-2-(2-methylbenzo[d]thiazol-6-yl)cyclopropyl)imidazo[1,2-b]pyridazin-6-yl)pyrimidine-2,4(1H,3H)-dione], the EC50 in assay [1] was 5.79 nM. This compound also had an IC50 in assay [2] of 1.63 nM.

Compound `O=c1[nH]cc(-c2cc([C@H]3C[C@@H]3c3ccc4ncsc4c3)c3ncc(F)n3n2)c(=O)[nH]1` (racemic) [Example 581, 5-(8-((1S,2S)-2-(benzo[d]thiazol-6-yl)cyclopropyl)-3-fluoroimidazo[1,2-b]pyridazin-6-yl)pyrimidine-2,4(1H,3H)-dione] returned an EC50 in assay [1] of 2.16 nM. The compound also returned an IC50 in assay [2] of 0.89 nM.

In assay [1], `O=c1[nH]cc(-c2cc([C@H]3C[C@@H]3c3ncc(C(F)(F)F)cc3F)c3nccn3n2)c(=O)[nH]1` (racemic) [Example 582, 5-(8-((1S,2S)-2-(3-fluoro-5-(trifluoromethyl)pyridin-2-yl)cyclopropyl)imidazo[1,2-b]pyridazin-6-yl)pyrimidine-2,4(1H,3H)-dione] displayed an EC50 of 15.6 nM. This compound had an IC50 in assay [2] of 4.96 nM.

For `O=c1[nH]cc(-c2cc([C@H]3C[C@@H]3c3ncc(Cl)cc3F)c3ncc(F)n3n2)c(=O)[nH]1` (racemic) [Example 583, 5-(8-((1S,2S)-2-(5-chloro-3-fluoropyridin-2-yl)cyclopropyl)-3-fluoroimidazo[1,2-b]pyridazin-6-yl)pyrimidine-2,4(1H,3H)-dione], the EC50 in assay [1] was 9.53 nM. Moreover, inhibition in assay [2] was half-maximal at 2.63 nM (IC50).

`O=c1[nH]cc(-c2cc([C@H]3C[C@@H]3c3ccc4nc(C(F)F)sc4c3)c3nccn3n2)c(=O)[nH]1` (racemic) [Example 589, 5-(8-((1S,2S)-2-(2-(difluoromethyl)benzo[d]thiazol-6-yl)cyclopropyl)imidazo[1,2-b]pyridazin-6-yl)pyrimidine-2,4(1H,3H)-dione]: the EC50 in assay [1] worked out at 2.56 nM. In assay [2], the IC50 worked out at 0.63 nM.

Turning to `O=c1[nH]cc(-c2cc([C@H]3C[C@@H]3c3cc4c(cn3)cnn4CC(F)(F)F)c3nccn3n2)c(=O)[nH]1` (racemic) [Example 591, 5-(8-((1S,2S)-2-(1-(2,2,2-trifluoroethyl)-1H-pyrazolo[4,3-c]pyridin-6-yl)cyclopropyl)imidazo[1,2-b]pyridazin-6-yl)pyrimidine-2,4(1H,3H)-dione], the EC50 in assay [1] turned out to be 0.17 nM. The compound also came in with an IC50 in assay [2] of 0.72 nM.

On to `O=c1[nH]cc(-c2cc([C@H]3C[C@@H]3c3cc(OCC4CC4(F)F)c(Cl)cn3)c3nccn3n2)c(=O)[nH]1` (mixture of isomers) [Example 597, 5-(8-((1S,2S)-2-(5-chloro-4-((2,2-difluorocyclopropyl)methoxy)pyridin-2-yl)cyclopropyl)imidazo[1,2-b]pyridazin-6-yl)pyrimidine-2,4(1H,3H)-dione], for which a half-maximal effect in assay [1] (EC50) was put at 5.93 nM. In assay [2], the IC50 came out at 2.79 nM.

Turning to `O=c1[nH]cc(-c2cc([C@H]3C[C@@H]3c3ccc4ccc(=O)n(CC(F)(F)F)c4c3)c3nccn3n2)c(=O)[nH]1` (racemic) [Example 598, 5-(8-((1S,2S)-2-(2-oxo-1-(2,2,2-trifluoroethyl)-1,2-dihydroquinolin-7-yl)cyclopropyl)imidazo[1,2-b]pyridazin-6-yl)pyrimidine-2,4(1H,3H)-dione], it took 0.11 nM to reach a half-maximal effect in assay [1] (EC50). In addition, the 50% inhibitory concentration (IC50) in assay [2] stood at 1.11 nM.

In assay [1], `O=c1[nH]cc(-c2cc([C@H]3C[C@@H]3c3ccc4ccc(OCC(F)(F)F)nc4c3)c3nccn3n2)c(=O)[nH]1` (racemic) [Example 599, 5-(8-((1S,2S)-2-(2-(2,2,2-trifluoroethoxy)quinolin-7-yl)cyclopropyl)imidazo[1,2-b]pyridazin-6-yl)pyrimidine-2,4(1H,3H)-dione] showed an EC50 of 41.2 nM. Moreover, in assay [2], the half-inhibitory concentration (IC50) is 2.38 nM.

As to `O=c1[nH]cc(-c2cc([C@H]3C[C@@H]3c3cc(OCC(F)(F)F)c(Cl)cn3)c3nccn3n2)c(=O)[nH]1` (racemic) [Example 600, 5-(8-((1S,2S)-2-(5-chloro-4-(2,2,2-trifluoroethoxy)pyridin-2-yl)cyclopropyl)imidazo[1,2-b]pyridazin-6-yl)pyrimidine-2,4(1H,3H)-dione], the EC50 in assay [1] was found to be 6.64 nM. This compound came in with an IC50 in assay [2] of 2.59 nM.

In assay [1], `O=c1[nH]cc(-c2cc([C@H]3C[C@@H]3c3ccc4cnn(CC(F)(F)F)c4n3)c3nccn3n2)c(=O)[nH]1` (racemic) [Example 601, 5-(8-((1S,2S)-2-(1-(2,2,2-trifluoroethyl)-1H-pyrazolo[3,4-b]pyridin-6-yl)cyclopropyl)imidazo[1,2-b]pyridazin-6-yl)pyrimidine-2,4(1H,3H)-dione] showed an EC50 of 0.17 nM. The compound further came in with an IC50 in assay [2] of 1.16 nM.

With `O=c1[nH]cc(-c2cc([C@H]3C[C@@H]3c3ccc4cnn(CC(F)(F)F)c4n3)c3ncc(F)n3n2)c(=O)[nH]1` (racemic) [Example 602, 5-(3-fluoro-8-((1S,2S)-2-(1-(2,2,2-trifluoroethyl)-1H-pyrazolo[3,4-b]pyridin-6-yl)cyclopropyl)imidazo[1,2-b]pyridazin-6-yl)pyrimidine-2,4(1H,3H)-dione], the EC50 in assay [1] turned out to be 0.53 nM. Moreover, in assay [2], the midpoint of inhibition, the IC50, lay at 0.93 nM.

In assay [1], `O=c1[nH]cc(-c2cc([C@H]3C[C@@H]3c3ccc4nc(C(F)(F)F)n(CC(F)(F)F)c4c3)c3nccn3n2)c(=O)[nH]1` (racemic) [Example 603, 5-(8-((1S,2S)-2-(1-(2,2,2-trifluoroethyl)-2-(trifluoromethyl)-1H-benzo[d]imidazol-6-yl)cyclopropyl)imidazo[1,2-b]pyridazin-6-yl)pyrimidine-2,4(1H,3H)-dione] showed an EC50 of 0.09 nM. The compound further yielded an IC50 in assay [2] of 1.94 nM.

Take `O=c1[nH]cc(-c2cc([C@H]3C[C@@H]3c3cc4c(cn3)cnn4CC(F)(F)F)c3ncc(F)n3n2)c(=O)[nH]1` (racemic) [Example 604, 5-(3-fluoro-8-((1S,2S)-2-(1-(2,2,2-trifluoroethyl)-1H-pyrazolo[4,3-c]pyridin-6-yl)cyclopropyl)imidazo[1,2-b]pyridazin-6-yl)pyrimidine-2,4(1H,3H)-dione]: the EC50 in assay [1] was determined as 0.12 nM. Moreover, in assay [2], it took 0.83 nM to reach half-maximal inhibition (IC50).

On to `O=c1[nH]cc(-c2cc([C@H]3C[C@@H]3c3ccc4cnc(CC(F)(F)F)n4c3)c3nccn3n2)c(=O)[nH]1` (racemic) [Example 605, 5-(8-((1S,2S)-2-(3-(2,2,2-trifluoroethyl)imidazo[1,5-a]pyridin-6-yl)cyclopropyl)imidazo[1,2-b]pyridazin-6-yl)pyrimidine-2,4(1H,3H)-dione], for which the EC50 in assay [1] was 0.12 nM. This compound also had an IC50 in assay [2] of 1.26 nM.

The compound `O=c1[nH]cc(-c2cc([C@H]3C[C@@H]3c3cc4c(cn3)c(C(F)(F)F)nn4CC(F)(F)F)c3nccn3n2)c(=O)[nH]1` (racemic) [Example 608, 5-(8-((1S,2S)-2-(1-(2,2,2-trifluoroethyl)-3-(trifluoromethyl)-1H-pyrazolo[4,3-c]pyridin-6-yl)cyclopropyl)imidazo[1,2-b]pyridazin-6-yl)pyrimidine-2,4(1H,3H)-dione] gave an EC50 in assay [1] of 0.48 nM. In addition, in assay [2], half-maximal inhibition (IC50) required 2.36 nM.

In assay [1], `O=c1[nH]cc(-c2cc([C@H]3C[C@@H]3c3ccc4c(C(F)(F)F)nc(CC(F)(F)F)n4c3)c3nccn3n2)c(=O)[nH]1` (racemic) [Example 609, 5-(8-((1S,2S)-2-(3-(2,2,2-trifluoroethyl)-1-(trifluoromethyl)imidazo[1,5-a]pyridin-6-yl)cyclopropyl)imidazo[1,2-b]pyridazin-6-yl)pyrimidine-2,4(1H,3H)-dione] showed an EC50 of 0.39 nM. Besides, in assay [2], the IC50 came to 2.36 nM.

In assay [1], `O=c1[nH]cc(-c2cc([C@H]3C[C@@H]3c3ncc4cnn(CC(F)(F)F)c4c3F)c3nccn3n2)c(=O)[nH]1` (racemic) [Example 615, 5-(8-((1S,2S)-2-(7-fluoro-1-(2,2,2-trifluoroethyl)-1H-pyrazolo[4,3-c]pyridin-6-yl)cyclopropyl)imidazo[1,2-b]pyridazin-6-yl)pyrimidine-2,4(1H,3H)-dione] had an EC50 of 0.28 nM. The same compound returned an IC50 in assay [2] of 1.54 nM.

In assay [1], `O=c1[nH]cc(-c2cc([C@H]3C[C@@H]3c3ccc4nc5n(c4c3)C(C(F)(F)F)CC5)c3nccn3n2)c(=O)[nH]1` (mixture of isomers) [Example 616, 5-(8-((1S,2S)-2-(1-(trifluoromethyl)-2,3-dihydro-1H-benzo[d]pyrrolo[1,2-a]imidazol-7-yl)cyclopropyl)imidazo[1,2-b]pyridazin-6-yl)pyrimidine-2,4(1H,3H)-dione] registered an EC50 of 0.2 nM. For the same compound, the IC50 in assay [2] was 2.3 nM.
